Data published in US20140303074A1, “Compositions and Methods For Inhibiting Immunodeficiency Virus Transcription” (The J. David Gladstone Institutes, priority 2011, published 2014).

Legend:
[1] = system: VSV-G envelope pseudotyped NL4-3 luciferase reporter viruses; assay: microbe, parasite or virus in culture; type: cell-based, HIV
[2] = cited from earlier work
recombinant p300 = recombinant p300 (Homo sapiens, UniProt Q09472); assay: In vitro HAT assay (histone acetylation, 14C acetyl CoA, autoradiography); type: biochemical; conditions: 1 μg recombinant p300, 10 μg Histone, pre-incubation 30° C. 30 min, densitometry; read-out: IC50 of inhibition of histone acetylation by p300
Method: 1 μg of HAT proteins (p300, CBP, pCAF, GCN5) and 10 μg of Histone were pre-incubated with or without sodium salicylate at various doses in an appropriate buffer (50 mM Hepes, pH 8.0, 10% Glycerol, 1 mM dithiothreitol (DTT)) at 30° C. for 30 min. After the pre-incubation period, 0.05 μCi of ^14C labeled acetyl CoA was added; the mixture was incubated for 1 hour. Samples were subjected to sodium dodecyl sulfate-polyacrylamide electrophoresis (SDS-PAGE). After electrophoresis, the gels were dried. Acetylation signals were detected in the dried gels by autoradiography. Band densities were measured by Image™ software (http://rsbweb(dot)nih(dot)gov/ij/); and the relative histone acetylation was plotted.
1 μg of recombinant p300 and 10 μg of Histone were pre-incubated with or without diflunisal at various doses in an appropriated buffer (50 mM Hepes, pH 8.0, 10% Glycerol, 1 mM DTT) at 30° C. for 30 min. 0.05 μCi of ^14C-labeled acetylCoA was then added, and the mixture was incubated for 1 hour. Histones were separated by SDS-PAGE (FIG. 1, bottom panel). Acetylation of Histone H3 and H4 were detected by autoradiography (FIG. 1, middle panel). […] Three different experimental systems were used to test the effect of diflunisal on HIV transcription and replication.

[3] = system: replication-competent NL4-3/GFP virus; assay: HIV replication assay (GFP positive cells by flow cytometry); type: cell-based; conditions: activated CD4 T-cells, MOI of 0.3, 50 μM, or 100 μM diflunisal, collected every 2 to 3 days
[4] = system: p300- and Tat-mediated transactivation of HIV transcription; assay: HIV-1 LTR luciferase reporter assay in Hela cells co-transfected with Tat and p300; type: cell-based
Method: An HIV-1 LTR promoter plasmid linked to a luciferase reporter plasmid, with or without the expression vector for HIV-1 Tat and p300, was transfected into cells. Cells were treated with sodium salicylate at same time of transfection. 36 hours later, the cells were lysed with passive lysis buffer (Promega), and luciferase activity was measured using a luminometer.
The effect of diflunisal on HIV transcription was tested. A plasmid containing HIV-1 driving the luciferase reporter was co-transfected into Hela cells with or without expression vectors encoding Tat and/or p300. Co-transfection of the HIV LTR with either Tat or p300 enhanced LTR activity 4 fold (FIG. 2) and 12 fold (FIG. 2) respectively. Co-expression of both Tat and p300 synergistically activated the HIV promoter 48 fold (FIG. 2). […] The IC50 for this inhibition was 80 μM.

Activated CD4 T-cells = assay: Cell toxicity in the HIV replication assay (FIG. 4A); conditions: 50 μM, or 100 μM diflunisal

Chain of recombinant p300 (Q09472 whole entry, species assumed): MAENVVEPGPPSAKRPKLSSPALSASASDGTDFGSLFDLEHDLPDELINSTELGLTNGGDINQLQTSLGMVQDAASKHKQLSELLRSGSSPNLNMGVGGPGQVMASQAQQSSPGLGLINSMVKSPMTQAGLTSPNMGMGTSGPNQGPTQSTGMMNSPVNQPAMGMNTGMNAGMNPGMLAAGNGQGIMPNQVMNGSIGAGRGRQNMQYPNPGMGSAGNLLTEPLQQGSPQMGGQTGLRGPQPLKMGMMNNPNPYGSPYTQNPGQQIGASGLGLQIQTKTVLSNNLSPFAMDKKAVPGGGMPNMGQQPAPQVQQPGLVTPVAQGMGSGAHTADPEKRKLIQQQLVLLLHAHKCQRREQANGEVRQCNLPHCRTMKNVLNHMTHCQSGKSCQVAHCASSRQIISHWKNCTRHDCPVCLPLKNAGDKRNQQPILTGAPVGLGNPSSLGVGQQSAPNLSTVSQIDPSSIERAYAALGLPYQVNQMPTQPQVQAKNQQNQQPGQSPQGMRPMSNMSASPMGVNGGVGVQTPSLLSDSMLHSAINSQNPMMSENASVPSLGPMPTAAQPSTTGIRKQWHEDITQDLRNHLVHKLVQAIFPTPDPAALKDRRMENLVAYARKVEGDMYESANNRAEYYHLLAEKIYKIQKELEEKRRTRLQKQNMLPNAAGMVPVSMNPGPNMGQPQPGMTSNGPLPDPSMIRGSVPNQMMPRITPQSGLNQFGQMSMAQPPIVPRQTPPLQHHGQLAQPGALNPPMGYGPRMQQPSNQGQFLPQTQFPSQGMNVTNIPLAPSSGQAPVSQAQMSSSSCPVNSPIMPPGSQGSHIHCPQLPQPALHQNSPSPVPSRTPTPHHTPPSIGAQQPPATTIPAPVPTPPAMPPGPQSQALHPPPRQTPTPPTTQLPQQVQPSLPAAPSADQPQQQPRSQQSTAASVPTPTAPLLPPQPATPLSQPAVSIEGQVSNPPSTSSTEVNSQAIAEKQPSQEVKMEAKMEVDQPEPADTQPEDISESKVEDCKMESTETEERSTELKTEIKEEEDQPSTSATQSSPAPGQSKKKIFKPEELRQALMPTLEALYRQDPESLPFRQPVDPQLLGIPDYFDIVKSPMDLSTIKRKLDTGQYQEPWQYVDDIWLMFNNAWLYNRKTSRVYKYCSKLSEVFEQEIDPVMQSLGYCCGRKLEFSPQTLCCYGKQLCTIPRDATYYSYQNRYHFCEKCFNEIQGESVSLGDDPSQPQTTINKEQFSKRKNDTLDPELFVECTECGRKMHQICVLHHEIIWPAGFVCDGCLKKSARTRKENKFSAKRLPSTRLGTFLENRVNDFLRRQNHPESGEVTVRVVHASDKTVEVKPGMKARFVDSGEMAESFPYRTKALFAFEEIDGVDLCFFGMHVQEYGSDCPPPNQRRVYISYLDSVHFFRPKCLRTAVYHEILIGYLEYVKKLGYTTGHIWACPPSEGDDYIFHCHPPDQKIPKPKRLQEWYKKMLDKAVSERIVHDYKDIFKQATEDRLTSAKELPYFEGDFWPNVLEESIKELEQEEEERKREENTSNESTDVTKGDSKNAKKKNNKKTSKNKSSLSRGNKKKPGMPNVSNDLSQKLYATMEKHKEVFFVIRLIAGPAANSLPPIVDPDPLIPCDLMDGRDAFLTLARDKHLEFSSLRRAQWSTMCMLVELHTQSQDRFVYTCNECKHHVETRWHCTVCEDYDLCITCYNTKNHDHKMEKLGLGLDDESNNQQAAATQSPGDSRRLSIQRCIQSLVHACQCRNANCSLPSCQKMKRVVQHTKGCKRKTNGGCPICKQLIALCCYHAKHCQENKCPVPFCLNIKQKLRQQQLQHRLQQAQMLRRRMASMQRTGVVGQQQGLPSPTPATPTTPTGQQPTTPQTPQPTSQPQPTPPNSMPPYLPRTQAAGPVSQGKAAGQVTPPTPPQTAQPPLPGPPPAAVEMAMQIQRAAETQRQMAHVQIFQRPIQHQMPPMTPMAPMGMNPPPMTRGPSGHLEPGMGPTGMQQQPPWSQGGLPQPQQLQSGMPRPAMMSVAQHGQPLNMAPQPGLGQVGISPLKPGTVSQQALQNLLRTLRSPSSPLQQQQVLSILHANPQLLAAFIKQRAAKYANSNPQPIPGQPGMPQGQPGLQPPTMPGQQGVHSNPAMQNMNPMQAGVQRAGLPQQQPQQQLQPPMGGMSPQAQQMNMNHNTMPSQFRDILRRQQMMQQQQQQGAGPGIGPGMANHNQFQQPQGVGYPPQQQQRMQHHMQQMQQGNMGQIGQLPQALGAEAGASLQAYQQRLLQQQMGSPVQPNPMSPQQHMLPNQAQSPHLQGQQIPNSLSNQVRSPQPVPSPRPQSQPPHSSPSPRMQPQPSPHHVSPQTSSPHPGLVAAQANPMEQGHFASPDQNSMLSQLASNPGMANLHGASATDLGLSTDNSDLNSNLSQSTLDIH

O=C(O)c1cc(-c2ccc(F)cc2F)ccc1O [Diflunisal, 2′,4′-difluoro-4-hydroxy-3-biphenylcarboxylic acid]
Inhibition of HIV infection (FIG. 3) [1]: inhibited HIV infection in a dose dependent manner | IC50 ([1]; Human immunodeficiency virus 1, NL43, T-cell, 24 h, read-out: IC50 for inhibition of HIV infection): 148 µM | Plasma trough concentrations ([2]; clinical dosage 0.5-1.0 gram per day): 100 to 300 µM | Bioavailability ([2]; in vivo): 80-90% | Half-life ([2]; in vivo): 8 to 12 h | IC50 (recombinant p300): 1240 µM | Percentage of infected cells (GFP positive cells), FIG. 4B [3]: suppressed and delayed peak of infection in a dose dependent manner | IC50 ([4]; Human immunodeficiency virus 1, HeLa, read-out: IC50 for inhibition of p300- and Tat-mediated transactivation of HIV transcription): 80 µM | Block of p300- and Tat-mediated transactivation of HIV transcription ([4]; at 0.3 mM, Hela cells): completely blocked | Cell toxicity (FIG. 4A) (Activated CD4 T-cells): did not show cell toxicity
